In patent publication US12304897B2, “15-PGDH inhibitors” (KYORIN PHARMACEUTICAL CO., LTD., priority 2019, dated 2025):
pIC50: −log10 of the molar value.

biological target: recombinant human 15-PGDH (Homo sapiens (Human), UniProt P15428); test: 15-PGDH enzyme inhibition test; assay type: biochemical; conditions: 4 nM recombinant human 15-PGDH, 30 μM PGE2, 1 mM NAD+, fluorescence 340/440 nm after 60 min
Procedure: 15-PGDH Enzyme Inhibition Test
Test compounds and 4 nM recombinant human 15-PGDH (R&D systems) in 50 mM Tris-HCl (pH 8.0) containing 0.01% TWEEN 20 (Sigma) and 0.01% bovine gamma globulin (Sigma) were put into 384 Flat Bottom Black plates (Corning, 3820) and allowed to stand for 12 minutes at room temperature. Then, 30 μM PGE2 (Cayman chemical) and 1 mM NAD^+ (Sigma) were added to start reaction. Sixty minutes after the start of reaction, signals were measured at an excitation wavelength of 340 nm and a fluorescence emission wavelength of 440 nm using Synergy 2 (BioTeck). The intensity of the fluorescent signal obtained when an assay buffer was added in place of the test compounds and NAD^+ was defined as 100% and that obtained with the addition of NAD^+ was defined as 0%.

recombinant human 15-PGDH, sequence (P15428 whole entry): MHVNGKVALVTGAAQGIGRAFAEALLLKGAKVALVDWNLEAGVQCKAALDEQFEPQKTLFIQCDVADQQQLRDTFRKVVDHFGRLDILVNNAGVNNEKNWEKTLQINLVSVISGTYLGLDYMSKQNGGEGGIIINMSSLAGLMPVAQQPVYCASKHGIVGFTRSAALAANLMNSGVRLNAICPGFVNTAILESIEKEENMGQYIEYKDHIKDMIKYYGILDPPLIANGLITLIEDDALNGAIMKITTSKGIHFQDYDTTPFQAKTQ

| Structure (SMILES) | pIC50 |
| --- | --- |
| O=C(c1cnc2c(-c3cnc4c(=O)[nH]ncc4c3)cccc2c1)N1CCC(F)(F)CC1 [compound 140] | > 8.52 |
| Cn1cnc2cc(-c3cccc4cc(C(=O)N5CCC(F)(F)CC5)ccc34)cnc2c1=O [compound 142] | > 8.52 |
| Cn1ccc2cc(-c3cccc4cc(C(=O)N5CCC(F)(F)CC5)cnc34)ncc2c1=O [compound 144] | ≤ 8.00 |
| Cn1ncc2cc(-c3cccc4cc(C(=O)N5CCC(F)(F)CC5)cnc34)cnc2c1=O [compound 145] | 8.00 to 8.52 |
| Cn1ccc2cc(-c3cccc4cc(C(=O)N5CCC(F)(F)CC5)cnc34)cnc2c1=O [compound 146] | 8.00 to 8.52 |
| CN1Cc2cc(-c3cccc4cc(C(=O)N5CC6(CCC6)C5)ccc34)cnc2C1=O [compound 150] | > 8.52 |
| CN1Cc2cc(-c3cccc4cc(C(=O)N5CCCC6CC65)ccc34)cnc2C1=O (stereo not shown) [compound 151] | > 8.52 |
| CN1Cc2cc(-c3cccc4cc(C(=O)N5CC=CCC5)ccc34)cnc2C1=O [compound 152] | > 8.52 |
| CN1Cc2cc(-c3cccc4cc(C(=O)N5C[C@H]6CCC[C@H]6C5)ccc34)cnc2C1=O [compound 153] | > 8.52 |
| CCN(CC)C(=O)c1ccc2c(-c3cnc4c(c3)CN(C)C4=O)cccc2c1 [compound 154] | > 8.52 |
| CN1Cc2cc(-c3nccc4cc(C(=O)N5CCC(F)(F)CC5)ccc34)ccc2C1=O [compound 156] | 8.00 to 8.52 |
| Cn1ccc2cc(-c3c(F)ccc4cc(C(=O)N5CCC(F)(F)CC5)ccc34)ccc2c1=O [compound 158] | > 8.52 |
| Cn1c(=O)[nH]c(=O)c2ccc(-c3cccc4cc(C(=O)N5CCC(F)(F)CC5)cnc34)cc21 [compound 159] | > 8.52 |
| O=C(c1cnc2c(-c3ccn4c(=O)ccnc4c3)cccc2c1)N1CCC(F)(F)CC1 [compound 160] | > 8.52 |
| NCCn1ncc2cc(-c3cccc4cc(C(=O)N5CCC(F)(F)CC5)ccc34)ccc2c1=O [compound 162] | > 8.52 |

Continued, values first:

| pIC50 | Structure (SMILES) |
| --- | --- |
| > 8.52 | O=C(c1cnc2c(-c3ccc4c(=O)[nH]oc4c3)cccc2c1)N1CCC(F)(F)CC1 [compound 141] |
| > 8.52 | Cn1ccc2cc(-c3cccc4cc(C(=O)N5CCC(F)(F)CC5)cnc34)ccc2c1=O [compound 143] |
| > 8.52 | Cn1ncc2cc(-c3cccc4cc(C(=O)N5CCC(F)(F)CC5)cnc34)ccc2c1=O [compound 147] |
| 8.00 to 8.52 | Cn1oc2cc(-c3cccc4cc(C(=O)N5CCC(F)(F)CC5)cnc34)ccc2c1=O [compound 148] |
| > 8.52 | CCN(CC)C(=O)c1ccc2c(-c3ccc4c(=O)[nH]ncc4c3)cccc2c1 [compound 155] |
| 8.00 to 8.52 | Cn1ccc2cc(-c3c(F)ccc4cc(C(=O)N5CCC(F)(F)CC5)ccc34)ncc2c1=O [compound 157] |
| > 8.52 | CS(=O)(=O)CCn1ncc2cc(-c3cccc4cc(C(=O)N5CCC(F)(F)CC5)ccc34)ccc2c1=O [compound 161] |
| > 8.52 | Cn1cnc2cc(-c3cccc4cc(C(=O)N5CCC(F)(F)CC5)cnc34)ccc2c1=O [compound 164] |
| > 8.52 | Cc1n[nH]c(=O)c2ccc(-c3cccc4cc(C(=O)N5CCC(F)(F)CC5)cnc34)cc12 [compound 165] |
| 8.00 to 8.52 | CN(C)C(=O)c1ccc2c(-c3ccn4c(=O)n(C)nc4c3)cccc2c1 [compound 166] |
